Measured values published in US7294189B2, “Wax emulsion preservative compositions and method of manufacture” (Hexion Specialty Chemicals, Inc., priority 2002, dated 2007).
Entries after “also recorded” stand apart in the source; their conditions may differ.

Key:
mold cultures = test: ASTM D3273 four week mold resistance test of gypsum product made with wax emulsion containing thiabendazole; conditions: 0.2% thiabendazole post-added to wax emulsion; closed chamber with potting soil and mold cultures, about 90° F., relative humidity 95% to 98%; first weeks of the test
Experimental: A wax emulsion formulation was prepared with the following components: G Wax (a paraffin wax) 33%, Montan wax 3.3%, alkyl phenol 0.5%, Disal 0.5%, potassium hydroxide 0.75%, ammonium hepta molybdonate 0.01%, starch 0.09%, polyfon H (lignosulfonic acid, sodium salt) 0.5%, water 61.35%. To this wax emulsion was post-added 0.2% thiabendazole, commercially available from Supreme Chemical of Cumming, Ga. under the trade designation MC-2. The wax emulsion was used to prepare a gypsum product. The resulting gypsum product was tested according to ASTM D3273. During this four week test, a sample of the subject material, such as a gypsum board, is placed in a closed chamber along with potting soil and mold cultures at a constant temperature of about 90° F. (32.2° C.) and relative humidity of 95% to 98%. The condition of the test sample is monitored weekly to determine the extent, if any, of mold growth.

biological growth = test: Biological growth on particle board coupons (urea-formaldehyde binder) made with test emulsions, placed in various environments; conditions: emulsions with 1% or 2% thiabendazole by weight of the wax; emulsion 0.4% solids by weight of furnish; soaked and non-soaked coupons; constant humidity, rooftop, warehouse, laboratory; after six weeks (control coupons showed growth after first week)
Experimental: In other tests, test emulsions as described above was used to prepare sample particle board coupons comprising a urea-formaldehyde binder. Some test emulsions contained 1% thiabendazole, others 2%, by weight of the wax in the emulsions. The emulsion was added to the furnish from which the coupons were formed in an amount of 0.4% solids, by weight of the furnish. Some of the coupons were soaked in water for twenty-four hours before testing. For the test, various soaked and non-soaked coupons were placed in various environments including constant humidity conditions (72° F. (22.2° C.), 72% relative humidity (RH)), outdoor rooftop environmental conditions (exposed to air but shielded from direct impingement by precipitation); and indoors in an uncontrolled warehouse and in a laboratory environment, beside a water bath. Control coupons prepared and treated similarly were also place in these environments.

c1ccc2[nH]c(-c3cscn3)nc2c1 [thiabendazole, 2-(4′-thiazolyl) benzimidazole]
biological (mold) growth on gypsum product (mold cultures): effective in inhibiting the growth of biological agents on gypsum board; also recorded: no biological growth
visible biological growth on particle board coupons (biological growth): none of the sample coupons made with thiabendazole had any visible growth
